Test results taken from patent publication US9468209B2, “Method for eradicating weeds with derivatives of 3-acetyl-5-sec-butyl-4-hydroxy-3-pyrrolin-2-one” (priority 2012, dated 2016).

Experiments:
[1] = test system: monocotyledon weeds (such as common crabgrass and barnyardgrass) and dicotyledonous weeds including Crofton weeds; settings: concentration of 50 μg/mL; cited from earlier work
[2] = test system: Hill reaction; settings: versus 3-(3,4-dichlorophenyl)-1,1-dimethylurea (DCMU); cited from earlier work
[3] = test system: rat; settings: called moderate toxicity; cited from earlier work
[4] = test system: Crofton weed; test: Needle puncture pathogenic test on slightly wounded leaf of Crofton weed; assay type: in vivo; settings: Crofton weed leaf; for Avg. diameter of the spot after 24 h / Time of disease spot to occur: analogs with formula (I) and (II); for Time of Disease spot / Average diameter of spot after 24 h: 50 μg/mL, 25° C., natural light
Procedure: 3-acetyl-5-sec-butyl-4-hydroxy-3-pyrrolin-2-one analogs were dissolved in a small amount of methanol and diluted with water to a concentration of 5-100 μg/g. A pathogenic test was conducted by placing the toxic liquid on the slightly wounded leaf of Crofton weed with a needle. The test has shown that the pathogenic capability of 3-acetyl-5-sec-butyl-4-hydroxy-3-pyrrolin-2-one analogs with respect to Crofton weed increases with the increase of concentration. The spot diameter caused on the leaf of Crofton weed after 24 hours was 2 mm at 50 μg/g.
3-acetyl-5-sec-butyl-4-hydroxy-3-pyrrolin-2-one analogue (Table 3, compounds 10-57) was dissolved in small amount of methanol. The solution was then diluted with distilled water to a concentration of 50 μg/mL. Methanol solution with same concentration and pure distilled water were used as control of the experiment. A pathogenic test was conducted by placing the toxic liquid on the slightly wounded leaf of Crofton weed with a needle. The experiment was carried out at 25° C. under the natural light and each test was repeated 6 times. It was measure the diameter of the spot after 24 h. […] The size of the side chain also has an effect on their activity.
Fourteen salts of 3-acetyl-5-sec-butyl-4-hydroxy-3-pyrrolin-2-one analogs were dissolved in small amount of methanol and diluted with distilled water to a concentration of 50 μg/mL. Methanol/water mixture was also prepared and used as control. Needle puncture method was used for the test on the small pieces of Crofton weed. Each treatment was repeated six times or more. The test samples were kept under natural light at 25° C. for 24 hours. The diameters of damaged spot of the plant leaves were measured by vernier caliper.

[5] = test system: Crofton weed; test: Spray on leaves and stems of three-leaf-stage Crofton weed seedlings grown in pots in a greenhouse; assay type: in vivo; design: key: 4: Plant completely dead; 3: Two thirds of the plant stems and leaves dried out; 2: Half of the plant stems and leaves dried out; 1: One third of the plant stems and leaves dried out; 0: No damage at all; settings: 50 μg/mL spray, assessed two days later
Procedure: Compounds 1, 2, 3, and 40 were separately dissolved in a small amount of methanol. The solutions were then diluted with distilled water to a concentration of 50 μg/mL. A mixture of methanol and water in the same ratio as the sample solution was also prepared and used as control in the experiment. The solutions were sprayed on leaves and stems of three-leaf-stage Crofton weed seedlings. All the plants were grown in pot in a greenhouse. The leaves were properly wet by the solutions for consistency and the treatment was repeated 3 times. The measurement of the plant damage was calculated by the formula: Damage Index=Σ(damage level×number of plants)×100/4/number of plants in each treatment.

[6] = test system: Hill reaction; test: Hill reaction activity of treated Crofton weed leaves; assay type: biochemical; settings: 50 μg/mL, strong light 12 hours
Procedure: (§1) Compounds 10-57 were dissolved in small amount of methanol. The solutions were then diluted with distilled water to a concentration of 50 μg/mL. A mixture of methanol and water in the same ratio as the sample solution was also prepared and used as control in the experiment. The healthy leaves of Crofton weed were washed in water for 30 minutes and then rinsed with distilled water. The clean and tissue dried leaves were placed in petri dish with the back-side of the leaves facing up. Wet filter paper was also placed in the in petri dish for moisture control. Water, methanol and chemical solutions of the analogues were applied to the back-side of each leaf. Test sample was then placed in vacuum chamber at 25° C. for 15 min followed by exposure to the strong light (400 μM m^−2 s^−1) for 12 hours. The leaf sample went through a series of test, and the Hill reaction rate, the electron transfer activity and fluorescence of chlorophyll were measured. Four leaves were used for each treatment and each test was repeated three times.

[7] = test system: photosystem II; test: PSII oxygen evolution / electron transfer activity of treated Crofton weed leaves; assay type: biochemical; settings: 50 μg/mL, strong light 12 hours
Procedure: as §1

[8] = test system: fluorescence of chlorophyll; test: Fluorescence of chlorophyll of treated Crofton weed leaves; assay type: biochemical; settings: 50 μg/mL, strong light 12 hours
Procedure: as §1

[9] = test system: Crofton weed; test: Needle puncture test on Crofton weed with washes recovered from compound-treated soil; assay type: in vivo; settings: after soil treatment (3 hours)
Procedure: Compounds 1, 2, 3, and 40 were dissolved in small amount of methanol and diluted with distilled water to concentration of 50 μg/mL. The solution was sprayed to the soil sample until the soil was wet but not overflows. After standing at room temperature for 3 hours, the soil sample was washed with water and methanol. The wash solution was collected and concentrated. Such process was repeated three times. The concentrated solutions were used for herbicidal activity test using the method of needle puncture on Crofton weed. Methanol water solution and pure water were used as control. The experiment for every sample was repeated six times. The spot diameters were measured with vernier caliper after the plant was kept under natural light at 25° C. for 24 hours (Table 11).

SMILES	killing monocotyledon and dicotyledonous weeds [1]	inhibition to Hill reaction compared with DCMU [2]	toxicity to rat [3]	Avg. diameter of the spot after 24 h [4]	Time of disease spot to occur [4]	Damage level [5]	Activity of Hill Reaction [6]	PSII Activity of oxygen evolution [7]	Fv/Fm [8]	Average diameter of the spot after 24 h, H2O wash [9]	Average diameter of the spot after 24 h, Methanol wash [9]	Time of Disease spot [4]	Average diameter of spot after 24 h [4]
CCC(C)C1NC(=O)C(C(C)=O)=C1O (centres unmarked) [3-acetyl-5-sec-butyl-4-hydroxy-3-pyrrolin-2-one]	very effective	much higher than the typical photosynthetic inhibitor	200 mg/kg	–	–	–	–	–	–	–	–	–	–
CCC(C)C1NC(=O)CC1=O (centres unmarked) [Compound 1]	–	–	–	1.97 ± 0.04 mm	22.3 ± 0.77 h	2	98.76 uMO2/mgChlh	50.89 uMO2/mgChlh	0.82	0.223 ± 0.077 mm	0.292 ± 0.041 mm	–	–
CCCC(Cl)C1NC(=O)CC1=O (centres unmarked) [Compound 2]	–	–	–	2.96 ± 0.01 mm	22.0 ± 2.30 h	2	69.41 uMO2/mgChlh	37.02 uMO2/mgChlh	0.84	0.280 ± 0.030 mm	0.362 ± 0.012 mm	–	–
CCC(C)C1NC(=O)C=C1O (centres unmarked) [Compound 3]	–	–	–	2.31 ± 0.09 mm	20.9 ± 1.01 h	1	62.21 uMO2/mgChlh	32.14 uMO2/mgChlh	0.83	0.273 ± 0.062 mm	0.334 ± 0.082 mm	–	–
CCOCCC(=O)C1=C(O)C(C(C)CC)NC1=O (centres unmarked) [Compound 45]	–	–	–	–	–	–	41.00 uMO2/mgChlh	27.04 uMO2/mgChlh	0.79	–	–	20.3 ± 0.57 h	2.73 ± 0.73 mm
CCC(C)C1NC(=O)C(C(=O)OCCc2ccccc2)=C1O (centres unmarked) [Compound 46]	–	–	–	–	–	–	58.78 uMO2/mgChlh	43.67 uMO2/mgChlh	0.82	–	–	22.1 ± 1.35 h	2.31 ± 0.44 mm
CCC(C)C1NC(=O)C(C(=O)CCOc2ccccc2)=C1O (centres unmarked) [Compound 47]	–	–	–	–	–	–	67.99 uMO2/mgChlh	49.01 uMO2/mgChlh	0.82	–	–	21.2 ± 1.88 h	2.12 ± 0.09 mm
CCC(C)C1NC(=O)C(C(=O)Cc2ccccc2)=C1O (centres unmarked) [Compound 51]	–	–	–	–	–	–	52.23 uMO2/mgChlh	32.15 uMO2/mgChlh	0.81	–	–	15.1 ± 1.82 h	3.28 ± 1.12 mm
CCC(C)C1NC(=O)C(C(=O)Cc2ccc([N+](=O)[O-])cc2)=C1O (centres unmarked) [Compound 52]	–	–	–	–	–	–	53.13 uMO2/mgChlh	36.86 uMO2/mgChlh	0.82	–	–	15.3 ± 1.72 h	3.83 ± 1.03 mm
CCCCCC(C#N)C1NC(=O)C(=C(C)O)C1=O (centres unmarked) [Compound 54]	–	–	–	–	–	–	43.65 uMO2/mgChlh	31.98 uMO2/mgChlh	0.81	–	–	11.30 ± 0.73 h	8.211 ± 0.101 mm
CC(=O)C1C(=O)NC(C)C1=O (centres unmarked) [Compound 57]	–	–	–	–	–	–	63.42 uMO2/mgChlh	35.13 uMO2/mgChlh	0.82	–	–	20.4 ± 0 h	1.98 ± 0.51 mm
